Data taken from paper PMC4756635 (Bioorganic & medicinal chemistry letters, 2016).
Entries after “also recorded” stand apart in the source; their conditions may differ.

Columns and labels:
[1] = Pharmacokinetics and oral bioavailability in C3H mice, plasma levels by LC-MS; type: in vivo; conditions: for bioavailability: po, 10 mg/kg; for Plasma drug concentrations at higher PO dose: mice, PO 100 mg/kg in suspension, data not shown
HIV-1 Nef = HIV-1 Nef (Human immunodeficiency virus type 1 group M subtype B, UniProt P03406); test: SPR direct binding to immobilized recombinant Nef
HIV-1NL4-3 = test: Nef-dependent HIV-1 replication in U87MG/CD4/CXCR4 cells, p24 Gag ELISA; type: cell-based; conditions: 3 μM, 4 days
[2] = C3H, mouse, plasma, iv, 2 mg/kg

Row | Structure (SMILES) | half-life [1, 2] [h] | Reduction of binding affinity for Nef relative to B9 parent compound (HIV-1 Nef) [fold] | AUC(0-inf) [1, 2] [ng·h/mL] | Cmax [1, 2] [ng/mL] | Vd [1, 2] [L/kg] | clearance [1, 2] [mL/min/kg] | bioavailability ([1]; C3H, mouse, plasma) [%] | Plasma drug concentrations at higher PO dose [1] | Effect on Nef-dependent enhancement of HIV-1 replication (HIV-1NL4-3) | Nef binding by SPR (in words) (HIV-1 Nef) | AUC(0-t) [1, 2] [ng·h/mL]
1 | NC(=S)n1nc(-c2ccc([N+](=O)[O-])cc2)c(/N=N/c2cccc(Cl)c2)c1O [Compound 1] | > 2 |  |  |  |  |  |  |  |  |  | 
2 | NC(=S)n1nc(-c2ccc([N+](=O)[O-])cc2)c(CCc2cccc(Cl)c2)c1O [Compound 2] | 2.7 | 2 | 2470 | 11200 | 0.91 | 15.5 | 53 to 85 | proportionally higher plasma drug concentrations | suppressed Nef-dependent enhancement of HIV-1 replication to the same extent as B9 |  | 
3 | O=[N+]([O-])c1ccc(-c2n[nH]c(O)c2CCc2cccc(Cl)c2)cc1 [Compound 3] |  |  |  |  |  |  |  |  | no activity | dramatic loss of Nef binding; also recorded: fail to bind to Nef | 
4 | NC(=S)n1nc(-c2ccc([N+](=O)[O-])cc2)c(Cc2cccc(Cl)c2)c1O [Compound 4] |  |  | 3890 | 3880 | 0.95 | 11.2 | 57 to 100 | proportionally higher plasma drug concentrations | suppressed Nef-dependent enhancement of HIV-1 replication to the same extent as B9 |  | 3770
5 | O=[N+]([O-])c1ccc(-c2n[nH]c(O)c2Cc2cccc(Cl)c2)cc1 [Compound 5] |  |  |  |  |  |  |  |  | no activity | dramatic loss of Nef binding; also recorded: fail to bind to Nef | 
